Where a name gives a salt, the structure may show the parent alone.
What was measured:
[1] = target: T1, Ostα-Ostβ (organic solute transporter, Ostα subunit) (Mus musculus, UniProt Q80WK2+Q8R000); details: read-out: % inhibition at 500 μM
T1 sequence (Q8R000 1-340): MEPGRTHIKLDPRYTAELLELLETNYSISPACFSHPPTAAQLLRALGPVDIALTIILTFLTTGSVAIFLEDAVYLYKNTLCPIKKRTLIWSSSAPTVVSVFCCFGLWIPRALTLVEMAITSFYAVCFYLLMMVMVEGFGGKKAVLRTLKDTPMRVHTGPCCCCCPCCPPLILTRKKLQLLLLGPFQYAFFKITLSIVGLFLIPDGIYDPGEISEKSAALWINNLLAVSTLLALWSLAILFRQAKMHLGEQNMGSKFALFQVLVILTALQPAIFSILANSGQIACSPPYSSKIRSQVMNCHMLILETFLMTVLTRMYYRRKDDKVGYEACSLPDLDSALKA
T1 sequence (Q80WK2 1-128): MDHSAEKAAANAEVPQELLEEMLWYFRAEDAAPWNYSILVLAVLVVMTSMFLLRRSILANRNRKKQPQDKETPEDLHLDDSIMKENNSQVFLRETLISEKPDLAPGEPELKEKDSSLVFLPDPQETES

[2] = target: T2, OSTα-OSTβ (organic solute transporter, OSTα subunit) (Homo sapiens, UniProt Q86UW1+Q86UW2); details: read-out: % inhibition at 500 μM
T2 sequence (Q86UW1 1-340): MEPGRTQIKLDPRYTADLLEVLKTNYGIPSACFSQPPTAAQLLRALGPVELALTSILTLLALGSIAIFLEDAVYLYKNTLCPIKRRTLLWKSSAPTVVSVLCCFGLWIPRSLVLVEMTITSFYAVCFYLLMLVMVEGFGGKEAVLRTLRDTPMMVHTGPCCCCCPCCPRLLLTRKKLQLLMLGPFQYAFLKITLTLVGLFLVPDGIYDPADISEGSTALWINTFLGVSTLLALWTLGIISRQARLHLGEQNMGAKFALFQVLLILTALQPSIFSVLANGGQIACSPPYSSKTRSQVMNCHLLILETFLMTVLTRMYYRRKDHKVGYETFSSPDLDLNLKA
T2 sequence (Q86UW2 1-128): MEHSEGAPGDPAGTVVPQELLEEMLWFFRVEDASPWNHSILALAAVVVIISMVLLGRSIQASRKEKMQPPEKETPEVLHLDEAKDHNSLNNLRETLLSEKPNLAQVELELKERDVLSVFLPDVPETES

How did the inhibition at 500 µM [1] turn out when `CC(=O)[C@H]1CC[C@H]2[C@@H]3CC=C4C[C@@H](OS(=O)(=O)O)CC[C@]4(C)[C@H]3CC[C@]12C` [PREGS, pregnenolone sulfate] was run?
The inhibition at 500 µM was about 65%.

What does the source list for `C[C@]12CC[C@@H](OS(=O)(=O)O)C[C@@H]1CC[C@@H]1[C@@H]2CC[C@]2(C)C(=O)CC[C@@H]12` [Androsterone sulfate]?
inhibition at 500 µM [1]: ~65%; inhibition at 500 µM [2]: ~65%
